This is an account of results in US20140080162A1, “FLUORESCENCE LIFETIME EPIGENETICS ASSAYS” (ALMAC SCIENCES (SCOTLAND) LIMITED, priority 2011, published 2014).

Where two headings read alike, the source gives them in different places. Residues, ends and D or L forms follow the SMILES beside them. *: point of attachment. Propanoyl(3-(9AA-2-yl)) = Nc1c2ccccc2nc2ccc(CCC(=O)*)cc12

Assay [1] has as its target T1, Set7/9 (Homo sapiens, UniProt Q8WTS6).
T1 construct: purchased BPS BioScience (via AMSBio, UK)
T1 sequence (Q8WTS6 1-366): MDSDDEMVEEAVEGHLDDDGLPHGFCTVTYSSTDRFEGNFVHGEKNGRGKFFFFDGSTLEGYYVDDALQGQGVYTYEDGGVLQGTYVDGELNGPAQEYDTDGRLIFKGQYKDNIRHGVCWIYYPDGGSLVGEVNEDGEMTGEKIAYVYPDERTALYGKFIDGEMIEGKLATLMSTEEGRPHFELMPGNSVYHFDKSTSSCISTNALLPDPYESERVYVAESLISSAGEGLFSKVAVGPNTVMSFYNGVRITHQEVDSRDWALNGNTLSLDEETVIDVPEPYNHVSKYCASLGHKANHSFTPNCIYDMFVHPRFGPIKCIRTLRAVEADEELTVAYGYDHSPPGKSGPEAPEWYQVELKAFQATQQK
Briefly: Set7/9 FLT protease protection assay. It counts as biochemical. The conditions noted are these: for overall lifetime change between substrate and product / maximum range of the assay: Set7/9 time-course, 1 μM peptide.
Procedure: The assay was performed at room temperature and samples taken after 0 h, 2 h, and 6 h time intervals respectively.
10 μl of Endo-LysC (final concentration 2 nM) was added to each well and the plate incubated at room temperature for 15 mins before the FLTs were measured using a NanoTaurus plate reader. Peptide only controls were included at the same concentration for comparison.
Assays were performed in a 20 μl volume in a 384-well black microplate and contained peptide 12 (1 μM) and Set7/9 enzyme (100 nM, 50 nM, 25 nM, or 12.5 nM) in assay buffer. Reactions were stopped at regular intervals by the addition of 10 μl Endo-LysC (final concentration 2 nM). FLTs were measured following 15 min incubation with Endo-LysC at room temperature. All measurements were performed in duplicate using a NanoTaurus plate reader.
The dependence of the Set7/9 assay on SAM co-factor was investigated using peptide 13 as the substrate. The assay was performed in a 384-well microplate at room temperature for 2 h in assay buffer (20 μl) using 25 nM Set7/9 and 1 μM substrate. SAM concentrations were varied from 100 μM-1.7 nM. On completion, Endo-LysC (2 nM) was added to each well and FLTs measured following a 20 min incubation period.
(§2) Reactions were performed in a 384-well microplate at room temperature for 2 h and stopped by the addition of Endo-LysC (2 nM).
Alternatively, assays were performed in a 384-well microplate at room temperature with an assay volume of 20 μl per well. To wells containing recombinant Set7/9 enzyme and peptide 12 or 13 in assay buffer (10 μl) was added SAM (10 μl) in assay buffer. Controls containing peptide only were also included. The plate was shaken and then sealed with a coverslip. The final concentration of Set7/9 in the assay varied between 100 nM and 12.5 nM whilst the concentration of peptide and SAM were kept constant at 1 μM and 100 μM respectively. Assays were started at different times and stopped together after 120 min by the addition of Endo-LysC (10 μl in assay buffer; final concentration 2 nM). Following incubation at room temperature for 15 min, the microplate was centrifuged at 500 rpm for 1 min and FLTs measured. All measurements were performed in duplicate.
For inhibitor titrations, compounds (5 μl) were preincubated with Set7/9 and peptide 13 (5 μl) for 10 min at room temperature prior to addition of SAM (10 μl). Controls containing no SAM or no inhibitor were included.

The next assay deals with T2, G9a (Homo sapiens, UniProt Q96KQ7).
T2 construct: purchased Millipore; Abcam; BPS Bioscience (via AMSBio)
T2 sequence (Q96KQ7 1-1210): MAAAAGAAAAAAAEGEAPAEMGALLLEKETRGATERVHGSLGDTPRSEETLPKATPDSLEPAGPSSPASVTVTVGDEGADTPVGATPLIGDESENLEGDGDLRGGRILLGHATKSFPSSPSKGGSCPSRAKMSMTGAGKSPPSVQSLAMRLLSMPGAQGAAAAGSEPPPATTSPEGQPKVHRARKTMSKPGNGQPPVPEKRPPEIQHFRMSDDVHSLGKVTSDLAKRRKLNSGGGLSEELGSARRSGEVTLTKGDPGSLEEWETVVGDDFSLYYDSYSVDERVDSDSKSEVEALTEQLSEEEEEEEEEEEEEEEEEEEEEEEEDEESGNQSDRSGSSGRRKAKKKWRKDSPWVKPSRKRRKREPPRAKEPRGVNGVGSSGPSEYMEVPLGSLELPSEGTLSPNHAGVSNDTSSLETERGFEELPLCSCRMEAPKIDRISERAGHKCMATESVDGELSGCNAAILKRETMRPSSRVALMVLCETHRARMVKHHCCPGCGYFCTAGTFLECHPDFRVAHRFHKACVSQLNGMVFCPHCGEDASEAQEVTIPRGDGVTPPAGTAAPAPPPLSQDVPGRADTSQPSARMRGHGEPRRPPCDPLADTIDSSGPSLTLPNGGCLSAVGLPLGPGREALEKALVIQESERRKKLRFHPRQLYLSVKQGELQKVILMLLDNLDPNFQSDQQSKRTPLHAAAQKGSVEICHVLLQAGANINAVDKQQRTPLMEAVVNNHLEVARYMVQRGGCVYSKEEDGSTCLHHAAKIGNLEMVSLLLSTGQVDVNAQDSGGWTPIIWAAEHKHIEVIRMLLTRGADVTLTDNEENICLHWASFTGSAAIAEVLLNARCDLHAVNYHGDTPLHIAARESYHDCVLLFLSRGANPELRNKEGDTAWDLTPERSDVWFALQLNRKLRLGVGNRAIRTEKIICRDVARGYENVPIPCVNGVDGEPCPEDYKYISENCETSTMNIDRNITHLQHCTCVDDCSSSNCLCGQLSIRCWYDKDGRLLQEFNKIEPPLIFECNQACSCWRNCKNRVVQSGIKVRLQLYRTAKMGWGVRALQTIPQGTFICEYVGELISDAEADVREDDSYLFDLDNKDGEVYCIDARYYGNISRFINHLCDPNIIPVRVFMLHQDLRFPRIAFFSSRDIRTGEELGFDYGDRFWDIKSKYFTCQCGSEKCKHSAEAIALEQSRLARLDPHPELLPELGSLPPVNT
Briefly: G9a FLT protease protection assay. It counts as biochemical. The conditions noted are these: SAM 100 μM, 2 h; for G9a concentration sufficient to confer complete protease protection: G9a (Abcam), 2 nM Endo-LysC.

Another assay deals with T3, PAD2 (Homo sapiens, UniProt Q9Y2J8).
T3 construct: purchased Modiquest Research
T3 sequence (Q9Y2J8 whole entry): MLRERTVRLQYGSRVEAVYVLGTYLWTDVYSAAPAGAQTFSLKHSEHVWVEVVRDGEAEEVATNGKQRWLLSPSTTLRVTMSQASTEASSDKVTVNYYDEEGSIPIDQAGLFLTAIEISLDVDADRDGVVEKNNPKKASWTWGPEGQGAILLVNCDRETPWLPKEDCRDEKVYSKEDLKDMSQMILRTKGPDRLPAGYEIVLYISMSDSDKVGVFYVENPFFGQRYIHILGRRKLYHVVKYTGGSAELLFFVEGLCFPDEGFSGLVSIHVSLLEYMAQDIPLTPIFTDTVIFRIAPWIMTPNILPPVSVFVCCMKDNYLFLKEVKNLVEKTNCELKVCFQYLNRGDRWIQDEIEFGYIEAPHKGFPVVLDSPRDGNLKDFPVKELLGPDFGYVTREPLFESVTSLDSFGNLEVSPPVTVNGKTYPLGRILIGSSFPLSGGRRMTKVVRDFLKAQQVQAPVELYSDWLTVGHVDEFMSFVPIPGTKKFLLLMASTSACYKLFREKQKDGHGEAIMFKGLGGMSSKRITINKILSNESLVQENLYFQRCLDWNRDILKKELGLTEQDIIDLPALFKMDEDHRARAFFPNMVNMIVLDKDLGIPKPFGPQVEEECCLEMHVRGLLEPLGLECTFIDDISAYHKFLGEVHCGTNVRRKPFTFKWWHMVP
Briefly: PAD2 FLT protease protection assay. The class given is biochemical. The conditions noted are these: 15 μM peptide, 30 nM PAD2, diluted to 1 μM; 10 nM trypsin 10 min. On the procedure:
Accordingly, peptide 1 (15 μM) was incubated with PAD2 (30 nM) in assay buffer (20 mM Tris pH 8, 200 μM CaCl2, 5 mM DTT, 0.01% CHAPS) (300 μl) and aliquots taken at regular time intervals and analysed by RP-HPLC. The assays were performed at room temperature and samples taken at 0 min, 30 min, and 120 min time intervals
In order to test if citrullination of peptide 1 by PAD2 had conferred protection against trypsin, the assay mixture was diluted to 1 μM concentration with assay buffer and 20 μl added to three wells of a 384-well black microplate. 10 μl of trypsin (final concentration 10 nM) was added to each well and the plate incubated at room temperature for 10 mins before the fluorescence lifetimes (FLTs) were measured using the NanoTaurus plate reader as described in the Experimental section. Peptide only controls were included at the same concentration for comparison.
For HPLC monitoring, assays were performed at room temperature in micro-centrifuge tubes with a total assay volume of 300 μl. Reactions were started by addition of peptide 1 to solutions containing recombinant PAD2 enzyme. […]
(§1) Where citrullination of the peptide substrate was confirmed, the assay mixtures were diluted 15-fold with assay buffer and transferred to a 384-well microplate (20 μl per well) and FLTs measured. […] FLTs were then re-measured. […]

In a further assay the target is T4, PAD4 (Homo sapiens, UniProt Q9UM07).
T4 construct: purchased Origene (via Insight Biotechnology)
T4 sequence (Q9UM07 whole entry): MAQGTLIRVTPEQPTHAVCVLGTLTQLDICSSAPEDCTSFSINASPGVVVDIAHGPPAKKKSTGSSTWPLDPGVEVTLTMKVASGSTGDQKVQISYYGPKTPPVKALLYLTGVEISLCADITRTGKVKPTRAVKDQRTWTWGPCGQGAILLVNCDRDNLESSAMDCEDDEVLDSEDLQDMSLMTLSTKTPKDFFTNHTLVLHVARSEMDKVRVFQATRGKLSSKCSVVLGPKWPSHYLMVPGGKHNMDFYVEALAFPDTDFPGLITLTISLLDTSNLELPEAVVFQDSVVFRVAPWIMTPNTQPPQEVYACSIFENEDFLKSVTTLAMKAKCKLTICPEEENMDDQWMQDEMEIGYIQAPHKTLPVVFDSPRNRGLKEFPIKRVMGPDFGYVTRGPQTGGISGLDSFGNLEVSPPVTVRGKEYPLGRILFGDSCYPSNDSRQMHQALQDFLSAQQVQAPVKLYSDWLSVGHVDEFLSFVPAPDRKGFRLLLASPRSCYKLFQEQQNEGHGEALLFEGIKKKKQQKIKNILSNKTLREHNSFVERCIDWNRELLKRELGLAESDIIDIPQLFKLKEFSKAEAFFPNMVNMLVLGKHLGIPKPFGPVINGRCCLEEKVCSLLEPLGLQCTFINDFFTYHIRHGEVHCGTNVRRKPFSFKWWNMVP
Briefly: PAD4 FLT protease protection assay. The conditions noted are these: 15 μM peptide, 30 nM PAD4, diluted to 1 μM; 10 nM trypsin 10 min. The class given is biochemical. On the procedure:
With a suitable HPLC method in hand, PAD4 assays were set up for each of the peptide substrates and aliquots taken at regular time intervals with product formation monitored by RP-HPLC. Each assay was performed in a micro-centrifuge tube containing 15 μM peptide and 30 nM PAD4 (Origene) in assay buffer (300 μl). The assays were performed at room temperature and samples taken at 0 min, 30 min, and 60 min time intervals.
In order to test if citrullination of peptides 1 and 3 by PAD4 had conferred protection against trypsin, the assay mixtures for these peptides (described above) were diluted to 1 μM concentration with assay buffer and 20 μl of each added to three wells of a 384-well black microplate. The FLTs were measured using the NanoTaurus plate reader as described previously. 10 μl of trypsin (final concentration 10 nM) was then added to each well and the plate incubated at room temperature for 10 mins before the FLTs were re-measured. Peptide only controls were included at the same concentration for comparison.
The dependence of the PAD4 assay on peptide substrate concentration was investigated. […] From FIG. 73, a KM of 180 nM was determined for substrate 1. […]
as §1

The next assay deals with T5, PRMT5 (Homo sapiens, UniProt O14744).
T5 construct: purchased BPS BioScience (via AMSBio, UK)
T5 sequence (O14744 whole entry): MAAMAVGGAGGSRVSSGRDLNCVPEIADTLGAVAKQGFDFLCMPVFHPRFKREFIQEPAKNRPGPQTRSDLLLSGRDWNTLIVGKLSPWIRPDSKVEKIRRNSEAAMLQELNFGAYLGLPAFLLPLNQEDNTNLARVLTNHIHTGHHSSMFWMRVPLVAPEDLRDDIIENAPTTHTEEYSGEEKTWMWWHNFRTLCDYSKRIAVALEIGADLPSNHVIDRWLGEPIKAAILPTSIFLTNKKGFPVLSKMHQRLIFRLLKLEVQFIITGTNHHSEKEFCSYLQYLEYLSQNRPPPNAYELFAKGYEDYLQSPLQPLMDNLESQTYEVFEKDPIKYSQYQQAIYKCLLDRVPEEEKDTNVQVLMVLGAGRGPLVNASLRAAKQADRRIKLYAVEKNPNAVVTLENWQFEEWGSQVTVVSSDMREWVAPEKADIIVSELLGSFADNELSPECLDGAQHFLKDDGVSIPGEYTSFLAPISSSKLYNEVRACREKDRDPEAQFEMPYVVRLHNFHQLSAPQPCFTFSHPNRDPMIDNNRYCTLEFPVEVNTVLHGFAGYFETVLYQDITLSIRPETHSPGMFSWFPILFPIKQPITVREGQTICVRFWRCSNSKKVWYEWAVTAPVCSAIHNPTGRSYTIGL
As to the kind of experiment: PRMT5 FLT protease protection assay. The class given is biochemical.

Assay [2] has as its target T1, Set7/9. The conditions noted are these: literature (Gauthier et al. 2012), lower concentration of SAM; read-out: reported IC50; cited from earlier work.

Procedure for G9a: Assays were performed at room temperature for 2 h and then FLTs measured using a NanoTaurus plate reader (Edinburgh Instruments Ltd.). Each well was then treated with 2 nM protease (Endo-LysC) (10 μl) and the plate incubated at room temperature for 60 min. The FLTs were then re-measured. Controls were included containing no G9a or no protease.
Peptides 4 and 9 were incubated with SAM (100 μM) and varying concentrations of G9a (Abcam) in 20 μl of assay buffer in a 384-well black microplate (Greiner). The assays were performed at room temperature for 2 h after which FLTs were measured as previously described. 2 nM Endo-LysC (10 μl per well) was then added and FLTs re-measured following 10 min and 60 min incubation with the protease.
The dependence of the G9a assay on SAM was investigated using both peptide 4 and 9 as substrates. Assays were performed in a 384-well microplate in assay buffer (20 μl) using either 25 nM or 10 nM G9a and 1 μM substrate. SAM concentrations were varied from 200 μM-0.4 μM and assays were incubated for 2 h at room temperature. On completion, Endo-LysC (2 nM) was added to each well and FLTs measured following a 10 min incubation period.
as §2
Alternatively, assays were performed in a 384-well microplate at room temperature with an assay volume of 20 μl per well. To wells containing recombinant G9a enzyme in assay buffer (5 μl) was added peptide in assay buffer (10 μl). Reactions were started by the addition of SAM (5 μl). The plate was shaken and then sealed with a coverslip. […] The concentration of peptide was kept constant at 1 μM. Assays were started at different times and stopped together after 2 h by the addition of Endo-LysC (10 μl in assay buffer; final concentration 2 nM). Following incubation at room temperature for 10 min, the microplate was centrifuged at 500 rpm for 1 min and FLTs measured.
For inhibitor titrations, compounds (5 μl) were preincubated with G9a (5 μl) for 30 min at room temperature prior to addition of peptide (5 μl) and SAM (5 μl). Controls containing no SAM or no inhibitor were included.
Procedure for PRMT5: The assay was performed at room temperature and samples taken after 0 h, 3.5 h, and 17.5 h time intervals respectively.
10 μl of Endo-ArgC (final concentration 10 nM) was added to each well and the plate incubated at room temperature for 60 mins before FLTs were measured. Peptide only controls were included at the same concentration for comparison.
Conditions were as follows: sinefungin (2 mM-0.1 μM), PRMT5 (50 nM), SAM (10 μM) and peptide 15 (1 μM) in assay buffer (20 μl). Reactions were performed in triplicate in a 384-well microplate at room temperature for 3 h and stopped by the addition of Endo-ArgC (1 nM).
Endo-ArgC (10 μl in assay buffer) was then added to each well and the plate incubated at room temperature for 15 mins. FLTs were then re-measured. All measurements were performed in triplicate and the final concentration of Endo-ArgC in the wells was 10 nM.
For inhibitor titrations, compounds (5 μl) were preincubated with PRMT5/peptide 15 (5 μl) for 30 min at room temperature prior to the addition of SAM (5 μl). Assays were run for 3 h at room temperature and stopped by the addition of 10 μl Endo-ArgC. FLTs were measured following a 1 h incubation at room temperature. Controls containing no PRMT5 or no inhibitor were also included. All measurements were performed in triplicate.

For the compound “WARTKQTARK(9AA)STGGKAPRKQLAK-CONH2 [peptide 12]”, the “increase in FLT after Endo-LysC for peptide exposed to Set7/9” value on Set7/9 [1] (15 μM peptide, 172 nM Set7/9, 100 μM SAM, diluted to 1 μM, 2 nM Endo-LysC 15 min) is on record as “no significant increase in FLT”. Besides, at Set7/9 [1] (2 nM Endo-LysC 15 min), the “overall lifetime change between substrate and product / maximum range of the assay” value is listed as “approximately 2.4 ns”. Turning to 9AA-TARK^9STGW-CONH2 [peptide 4], on G9a, the “G9a concentration sufficient to confer complete protease protection” value was determined as 50 nM. For the compound `C[C@@H](O)[C@H](NC(=O)[C@H](CO)NC(=O)[C@H](CCC(N)=O)NC(=O)CCc1ccc2nc3ccccc3c(N)c2c1)C(=O)N[C@@H](CCCNC(=N)N)C(=O)NCC(=O)N[C@@H](CO)C(=O)NCC(=O)N[C@@H](Cc1c[nH]cn1)C(=O)N[C@@H](Cc1c[nH]c2ccccc12)C(=O)N[C@@H](CCCCN)C(=O)N[C@@H](CCCCN)C(N)=O` [peptide 1] ({Propanoyl(3-(9AA-2-yl))}-QSTRGSGHWKK-NH2), the “increase in FLT after trypsin for peptide exposed to PAD2” value at PAD2 was “no increase in FLT”. The “increase in FLT after trypsin for peptide exposed to PAD4” value at PAD4 is reported as “no increase in FLT”.

As for “WRTKQTARK(9AA)STGGKAPRKQLAK-CONH2 [peptide 13]”, the “overall lifetime change between substrate and product / maximum range of the assay” value at Set7/9 [1] (2 nM Endo-LysC 15 min) turned out to be 4 ns. On to `Nc1ncnc2c1ncn2[C@@H]1O[C@H](C[C@@H](N)CC[C@H](N)C(=O)O)[C@@H](O)[C@H]1O` [sinefungin, reference compound], for which, on PRMT5 (peptide 15 (1 μM), PRMT5 50 nM, SAM 10 μM, 3 h), the IC50 (commonly the concentration that inhibits the measured activity by half) was found to be 13 µM. On to “Ac-WSGRGKGGK(9AA)GLGKGGAKRHRK-CONH2 [peptide 15]”, for which the “increase in FLT after Endo-ArgC for peptide exposed to PRMT5” value on PRMT5 (150 nM PRMT5, 100 μM SAM, reaction not complete, 10 nM Endo-ArgC 60 min) stood at 4.7 ns. As for `Nc1ncnc2c1ncn2[C@@H]1O[C@H](CSCC[C@H](N)C(=O)O)[C@@H](O)[C@H]1O` [SAH, S-adenosylhomocysteine, reference compound], the 50% inhibitory concentration (IC50) was 16 µM on Set7/9 [2] and 37 µM against Set7/9 [1] (peptide 13 (1 μM), Set7/9 50 nM, SAM 500 nM, 2 h). `C[C@@H](O)[C@H](NC(=O)[C@H](CO)NC(=O)[C@H](CCC(N)=O)NC(=O)[C@H](Cc1c[nH]cn1)NC(=O)[C@@H](N)CCCCNC(=O)CCc1ccc2nc3ccccc3c(N)c2c1)C(=O)N[C@@H](CCCNC(=N)N)C(=O)NCC(=O)N[C@@H](CO)C(=O)NCC(=O)N[C@@H](Cc1c[nH]cn1)C(=O)N[C@@H](Cc1c[nH]c2ccccc12)C(=O)N[C@@H](CCCCN)C(=O)N[C@@H](CCCCN)C(N)=O` [peptide 3] (H-K(Propanoyl(3-(9AA-2-yl)))HQSTRGSGHWKK-NH2; N-terminus assumed): the “increase in FLT after trypsin for peptide exposed to PAD4” value on PAD4 is recorded as “no increase in FLT”.

As for “K(9AA)ARTK(Me)QTARK^9STGGW-CONH2 [peptide 9]”, the “G9a concentration sufficient to confer complete protease protection” value at G9a was determined as 50 nM. For the same compound, the “protease protection after G9a treatment” value at G9a (G9a (Millipore) 500 nM, 2 nM Endo-LysC 60 min) is listed as “complete protease protection”.
